In patent publication US20050209157A1, “Short bioactive peptides and methods for their use” (priority 2001, published 2005):
No end group written: not given here.

Tested on: yeast (Saccharomyces cerevisiae)
Assay: Antimicrobial assay I, yeast assay in RPMI 1640
Assay type: cell-based
Conditions: RPMI 1640 media

| Substance | yeast (MIC or MFC) |
| --- | --- |
| FALALKAKKL-NH2 [P182] | > (> indicates greater than 200 μg/mL) |

Tested on: Pseudomonas aeruginosa H187
Assay: not given
Assay type: cell-based
Conditions: Table 15; in µg/mL

| Substance | MIC P. aeruginosa H187 |
| --- | --- |
| FAKLLAKLAKKFAL-NH2 [P120 (82)] | >128 |
| FALLKL-NH2 [P168 (129)] | 128 |
| FAKLLAKAFKKAL-NH2 [P114 (78)] | >128 |
| FAKLA-NH2 [P128 (90)] | >128 |
| FALKALKKAL-NH2 [P170 (131)] | >128 |
| FAKLLAKLAKK-NH2 [P151 (113)] | >128 |
| FALALKA-NH2 [P141 (103)] | >128 |
| KFKKLAKKW-NH2 [P175 (136)] | >128 |
| FAKAIAKIAFGKGIGKVGKKLL-NH2 [P134 (96)] | >128 |
| FAKLFAKLAKKFAL-NH2 [P121 (83)] | >128 |
| FAKLLAKLAKAKL-NH2 [P65 (44)] | >128 |
| FALKALKK-NH2 [P145 (107)] | >128 |
| FAKLLAKLAK-NH2 [P123 (85)] | >128 |

Tested on: human red blood cells (RBC)
Assay: in vitro
Assay type: cell-based
Conditions: hemolytic assay, concentration at 50% hemolysis, 1 hour at 37° C.

| Substance | LD50 |
| --- | --- |
| FALALKAKKL-NH2 [P182] | > (> indicates greater than 1000) |

Tested on: P. aeruginosa H374
Assay: not given
Assay type: cell-based, Pseudomonas aeruginosa
Conditions: Table 14; in µg/mL

| Substance | MIC P. aeruginosa H374 |
| --- | --- |
| FAKLLAKLAKKFAL-NH2 [P120 (82)] | 128 |
| FALLKL-NH2 [P168 (129)] | 128 |
| FAKLLAKAFKKAL-NH2 [P114 (78)] | >128 |
| FAKLA-NH2 [P128 (90)] | >128 |
| FALKALKKAL-NH2 [P170 (131)] | >128 |
| FAKLLAKLAKK-NH2 [P151 (113)] | 128 |
| FALALKA-NH2 [P141 (103)] | >128 |
| KFKKLAKKW-NH2 [P175 (136)] | >128 |
| FAKAIAKIAFGKGIGKVGKKLL-NH2 [P134 (96)] | 128 |
| FAKLFAKLAKKFAL-NH2 [P121 (83)] | >128 |
| FAKLLAKLAKAKL-NH2 [P65 (44)] | 64 |
| FALKALKK-NH2 [P145 (107)] | >128 |
| FAKLLAKLAK-NH2 [P123 (85)] | >128 |

Tested on: S. typhimurium 14028S
Assay: not given
Assay type: cell-based, Salmonella typhimurium
Conditions: Table 14

| Substance | MIC S. typhimurium 14028S |
| --- | --- |
| FAKLLAKLAKKFAL-NH2 [P120 (82)] | > 128 µg/mL |
| FALLKL-NH2 [P168 (129)] | > 128 µg/mL |
| FAKLLAKAFKKAL-NH2 [P114 (78)] | 128 µg/mL |
| FAKLA-NH2 [P128 (90)] | > 128 µg/mL |
| FALKALKKAL-NH2 [P170 (131)] | > 128 µg/mL |
| FAKLLAKLAKK-NH2 [P151 (113)] | > 128 µg/mL |
| FALALKA-NH2 [P141 (103)] | > 128 µg/mL |
| KFKKLAKKW-NH2 [P175 (136)] | > 128 µg/mL |
| FAKAIAKIAFGKGIGKVGKKLL-NH2 [P134 (96)] | > 128 µg/mL |
| FAKLFAKLAKKFAL-NH2 [P121 (83)] | > 128 µg/mL |
| FAKLLAKLAKAKL-NH2 [P65 (44)] | > 128 µg/mL |
| FALKALKK-NH2 [P145 (107)] | > 128 µg/mL |
| FAKLLAKLAK-NH2 [P123 (85)] | > 128 µg/mL |

Tested on: Pseudomonas aeruginosa ATCC 9027
Assay: Antimicrobial assay I, MIC by OD measurement
Assay type: cell-based
Conditions: 37° C. for 24 hours, absorbance 620 nm

| Substance | paerug9027 (MIC) |
| --- | --- |
| FALALKAKKL-NH2 [P182] | > (> indicates greater than 200 μg/mL) |

Tested on: Staphylococcus aureus ATCC 6538
Assay: Antimicrobial assay I, MIC by OD measurement
Assay type: cell-based
Conditions: 37° C. for 24 hours, absorbance 620 nm

| Substance | staph6538 (MIC) |
| --- | --- |
| FALALKAKKL-NH2 [P182] | > (> indicates greater than 200 μg/mL) |

Tested on: WI38
Assay: not given
Conditions: MTT, 24 hours with peptide; normal fibroblast line

| Substance | WI38 LD50 |
| --- | --- |
| FALALKAKKL-NH2 [P182] | > (> indicates greater than 1000) |

Same assay, conditions: WI38 normal lung fibroblast line, MTT, 24 hours with peptide

| Substance | LD50 WI38 |
| --- | --- |
| FALALKAKKL-NH2 [P182] | > (> indicates greater than 1000) |

Tested on: E. coli UB1005
Assay: not given
Assay type: cell-based, Escherichia coli
Conditions: Table 14

| Substance | MIC E. coli UB1005 |
| --- | --- |
| FAKLLAKLAKKFAL-NH2 [P120 (82)] | > 128 µg/mL |
| FALLKL-NH2 [P168 (129)] | 128 µg/mL |
| FAKLLAKAFKKAL-NH2 [P114 (78)] | 32 µg/mL |
| FAKLA-NH2 [P128 (90)] | 128 µg/mL |
| FALKALKKAL-NH2 [P170 (131)] | 64 µg/mL |
| FAKLLAKLAKK-NH2 [P151 (113)] | > 128 µg/mL |
| FALALKA-NH2 [P141 (103)] | > 128 µg/mL |
| KFKKLAKKW-NH2 [P175 (136)] | > 128 µg/mL |
| FAKAIAKIAFGKGIGKVGKKLL-NH2 [P134 (96)] | 128 µg/mL |
| FAKLFAKLAKKFAL-NH2 [P121 (83)] | > 128 µg/mL |
| FAKLLAKLAKAKL-NH2 [P65 (44)] | 128 µg/mL |
| FALKALKK-NH2 [P145 (107)] | > 128 µg/mL |
| FAKLLAKLAK-NH2 [P123 (85)] | 64 µg/mL |

Tested on: S. aureus (MRSA)
Assay: not given
Assay type: cell-based, Staphylococcus aureus
Conditions: Table 15, strain SAP0017; in µg/mL

| Substance | MIC S. aureus SAP0017 |
| --- | --- |
| FAKLLAKLAKKFAL-NH2 [P120 (82)] | >128 |
| FALLKL-NH2 [P168 (129)] | >128 |
| FAKLLAKAFKKAL-NH2 [P114 (78)] | >128 |
| FAKLA-NH2 [P128 (90)] | >128 |
| FALKALKKAL-NH2 [P170 (131)] | 0.128 |
| FAKLLAKLAKK-NH2 [P151 (113)] | >128 |
| FALALKA-NH2 [P141 (103)] | >128 |
| KFKKLAKKW-NH2 [P175 (136)] | >128 |
| FAKAIAKIAFGKGIGKVGKKLL-NH2 [P134 (96)] | >128 |
| FAKLFAKLAKKFAL-NH2 [P121 (83)] | >128 |
| FAKLLAKLAKAKL-NH2 [P65 (44)] | >128 |
| FALKALKK-NH2 [P145 (107)] | >128 |
| FAKLLAKLAK-NH2 [P123 (85)] | >128 |

Tested on: SW480
Assay: Anti-cancer assay, MTT, LD50
Assay type: cell-based
Conditions: SW480 colon adenocarcinoma line, 24 hours with peptide
From the text: (§1) Numbers are LD50 values (μg/mL).

| Substance | LD50 SW480 |
| --- | --- |
| FALALKAKKL-NH2 [P182] | > (> indicates greater than 1000) |

Tested on: H1299
Assay: Anti-cancer assay, MTT, LD50
Assay type: cell-based
Conditions: 24 hours with peptide, lung large cell carcinoma
From the text: as §1

| Substance | H1299 LD50 |
| --- | --- |
| FALALKAKKL-NH2 [P182] | > (> indicates greater than 1000) |

Tested on: PC3
Assay: Anti-cancer assay, MTT, LD50
Assay type: cell-based
Conditions: 24 hours with peptide, prostate adenocarcinoma
From the text: as §1

| Substance | PC3 LD50 |
| --- | --- |
| FALALKAKKL-NH2 [P182] | > (> indicates greater than 1000) |

Tested on: HeLaS3
Assay: Anti-cancer assay, MTT, LD50
Assay type: cell-based
Conditions: 24 hours with peptide, cervical carcinoma
From the text: as §1

| Substance | HeLaS3 LD50 |
| --- | --- |
| FALALKAKKL-NH2 [P182] | > (> indicates greater than 1000) |

Tested on: MCF7
Assay: Anti-cancer assay, MTT, LD50
Assay type: cell-based
Conditions: MCF7 breast adenocarcinoma line, MTT, 24 hours with peptide
From the text: as §1

| Substance | LD50 MCF7 |
| --- | --- |
| FALALKAKKL-NH2 [P182] | > (> indicates greater than 1000) |

Tested on: BMKC
Assay: Anti-cancer assay, MTT, LD50
Assay type: cell-based
Conditions: BMKC cloned melanoma line, 24 hours with peptide
From the text: as §1

| Substance | LD50 BMKC |
| --- | --- |
| FALALKAKKL-NH2 [P182] | > (> indicates greater than 1000) |

Tested on: human leukocyte (WBC) cells
Assay: Stimulation and proliferation of leukocytes, Alamar Blue
Assay type: cell-based
Conditions: compared to untreated positive control cells; Alamar Blue

| Substance | stimulatory and/or inhibitory action on growth of human leukocyte (WBC) cells |
| --- | --- |
| FALALKAKKL-NH2 [P182] | stimulatory (and/or proliferative) at all concentrations through 500 μg/ml |

Tested on: Candida albicans 105
Assay: not given
Assay type: cell-based
Conditions: Table 15; in µg/mL

| Substance | MIC C. albicans 105 |
| --- | --- |
| FAKLLAKLAKKFAL-NH2 [P120 (82)] | 64 |
| FALLKL-NH2 [P168 (129)] | 128 |
| FAKLLAKAFKKAL-NH2 [P114 (78)] | 64 |
| FAKLA-NH2 [P128 (90)] | 128 |
| FALKALKKAL-NH2 [P170 (131)] | 128 |
| FAKLLAKLAKK-NH2 [P151 (113)] | 128 |
| FALALKA-NH2 [P141 (103)] | >128 |
| KFKKLAKKW-NH2 [P175 (136)] | >128 |
| FAKAIAKIAFGKGIGKVGKKLL-NH2 [P134 (96)] | 64 |
| FAKLFAKLAKKFAL-NH2 [P121 (83)] | 64 |
| FAKLLAKLAKAKL-NH2 [P65 (44)] | 64 |
| FALKALKK-NH2 [P145 (107)] | 64 |
| FAKLLAKLAK-NH2 [P123 (85)] | 64 |

Tested on: S. epidermidis C621
Assay: not given
Assay type: cell-based, Staphylococcus epidermidis
Conditions: Table 15

| Substance | MIC S. epidermidis C621 |
| --- | --- |
| FAKLLAKLAKKFAL-NH2 [P120 (82)] | > 128 µg/mL |
| FALLKL-NH2 [P168 (129)] | 128 µg/mL |
| FAKLLAKAFKKAL-NH2 [P114 (78)] | 64 µg/mL |
| FAKLA-NH2 [P128 (90)] | 128 µg/mL |
| FALKALKKAL-NH2 [P170 (131)] | > 128 µg/mL |
| FAKLLAKLAKK-NH2 [P151 (113)] | > 128 µg/mL |
| FALALKA-NH2 [P141 (103)] | > 128 µg/mL |
| KFKKLAKKW-NH2 [P175 (136)] | > 128 µg/mL |
| FAKAIAKIAFGKGIGKVGKKLL-NH2 [P134 (96)] | 128 µg/mL |
| FAKLFAKLAKKFAL-NH2 [P121 (83)] | > 128 µg/mL |
| FAKLLAKLAKAKL-NH2 [P65 (44)] | > 128 µg/mL |
| FALKALKK-NH2 [P145 (107)] | > 128 µg/mL |
| FAKLLAKLAK-NH2 [P123 (85)] | 16 µg/mL |
